How the values were obtained:
[1] = system: patients suffering from a mild to moderate form of keratoconjunctivitis sicca; assay: Clinical study, tear break-up time (TBUT); type: in vivo, human
Experimental: (§1) In one study, 64 patients suffering from a mild to moderate form of keratoconjunctivitis sicca were examined. […] The majority (72%) of the patients were female. For at least one eye in each case, the tear break-up time (TBUT), i.e., the time until dry spots reappear on the cornea after blinking, was less than 10 sec. The TBUT was used as the main parameter for the treatment assessment. Over a period of 28 days, 34 patients were treated with an ectoine-containing composition and the other 30 patients with hyaluronic acid as reference. 59 of the patients finished the study as planned; 5 patients left prematurely. On average, the TBUT improved within the 28-day observation period by 2.6 sec (p=0.0011) for ectoine-treated patients and by 1.1 sec (p=0.1686) for the hyaluronic acid-treated patients.

[2] = system: patients suffering from a mild to moderate form of keratoconjunctivitis sicca; assay: Clinical study, OSDI (ocular surface disease index) quality of life; type: in vivo, human; conditions: within the 28-day observation period
Experimental: as §1, with “The quality of life of” for “On average,”, “patients was determined on” for “TBUT improved within”, “basis of the OSDI (ocular surface disease index). The OSDI assessment consists of 12 questions answered by the patients on a scale of 0 to 4 (0=never; 4=always). The higher the OSDI value, the stronger the impairment of the daily life of the disease. Within the” for “28-day”, “period, it was possible to observe a decrease of 17.7 points in the case of the” for “period by 2.6 sec (p=0.0011) for”, “of 17.2 points in the case of” for “by 1.1 sec (p=0.1686) for”

[3] = system: patients suffering from a mild to moderate form of keratoconjunctivitis sicca; type: in vivo, human; conditions: for tolerability: human, in vivo
Experimental: as §1, with “prematurely. […] Especially” for “prematurely. On average,”, “the sensation of foreign bodies and the sensation of tired eyes were rated as” for “the TBUT”, “improved following” for “improved within”, “the treatment. 78.8% of the” for “the 28-day observation period by 2.6 sec (p=0.0011) for”, “and 71.4% of” for “and by 1.1 sec (p=0.1686) for”, “acid-treated patients would continue use.” for “acid-treated patients.”

[4] = system: patients suffering from a mild to moderate form of keratoconjunctivitis sicca; assay: Clinical study, lacrimation according to Schirmer's test II; type: in vivo, human
Experimental: In one study, 64 patients suffering from a mild to moderate form of keratoconjunctivitis sicca were examined. […] The majority (72%) of the patients were female. For at least one eye in each case, the tear break-up time (TBUT), i.e., the time until dry spots reappear on the cornea after blinking, was less than 10 sec. The TBUT was used as the main parameter for the treatment assessment. Over a period of 28 days, 34 patients were treated with an ectoine-containing composition and the other 30 patients with hyaluronic acid as reference. 59 of the patients finished the study as planned; 5 patients left prematurely. Lacrimation was examined according to the Schirmer's test II. This was lower for the ectoine patients than for the hyaluronic acid patients both at the start (8.8 mm/5 min compared to 16.0 mm/5 min) and at the end (10.6 mm/5 min compared to 16.8 mm/5 min) of the treatment, it being possible to observe a more distinct improvement for the ectoine-treated patients than for the hyaluronic acid-treated patients (1.8 mm/5 min compared to 0.8 mm/5 min).

[5] = Atomic force microscopy (AFM) topography of Langmuir-Blodgett-transferred meibomian lipid layers; type: physicochemical, human
Experimental: The topography of the surface of the lipid layers was examined with the aid of an atomic force microscope (atomic force microscopy, AFM). To this end, the lipid layer was transferred to a solid surface using the Langmuir-Blodgett technique; thereafter, the AFM measurements were carried out at pressures of 5 mN/m, 20 mN/m and 23.5 mN/m and 20° C. At a relatively low pressure of 5 mN/m, it was possible to observe small fibrous structures of up to approx. 5 nm in height distributed over the entire area. Layers of hydrophobic lipids such as cholesteryl esters and triglycerides might be involved here. At higher pressures of 20 mN/m, the number of fibrous structures increased.
In the presence of 100 mM ectoine, droplet-type structures of up to approx. 300 nm in height were observed. At higher ectoine concentrations, the diameter of the droplet-type structures increased.

[6] = Compression of meibomian lipid monolayers on PBS subphase with different ectoine concentrations (surface pressure-area isotherms); type: physicochemical, human
Experimental: Meibomian lipids were obtained from the meibomian glands of four healthy volunteers. The lipids were dissolved in chloroform/methanol (1:1, v/v) and applied to an aqueous subphase (PBS, phosphate-buffered saline solution, pH 7.4, T=20° C.). After an equilibration time of 10-15 min, the monolayers were compressed at 2.9 cm^2/min. The subphase was provided with different ectoine concentrations. The result of the compression of the lipid film on a PBS subphase without ectoine is depicted in FIG. 2A. No phase transitions are observed up to a surface pressure of 20 mN/m. […] Ectoine therefore enlarges the spaces between the molecules.

Row | Compound | improvement of TBUT in patients with severe keratoconjunctivitis sicca and TBUT<5 sec ([1]; 28 days, ectoine compared with hyaluronic acid) | improvement of TBUT on average ([1]; within the 28-day observation period) [s] | decrease of OSDI [2] [points] | estimation of the effectiveness of the treatment according to patients' estimates ([3]; after 28-day treatment) [points] | tolerability [3] | lacrimation, Schirmer's test II, at the end of the treatment ([4]; end of the 28-day treatment) [mm/5 min] | improvement of lacrimation, Schirmer's test II ([4]; end vs start of the 28-day treatment) [mm/5 min] | lacrimation, Schirmer's test II, at the start of the treatment ([4]; start of the treatment (baseline)) [mm/5 min] | formation of droplet-type structures ([5]; 50 mM ectoine, AFM) | thickness of the lipid layer at the sites of the droplet-type clusters ([5]; 100 mM ectoine in the lacrimal fluid (model of FIG. 1B), approx. 20 nm in the absence of ectoine) | height of droplet-type structures ([5]; 100 mM ectoine, AFM, 20° C.) [nm] | diameter of the droplet-type structures ([5]; ectoine concentrations higher than 100 mM, AFM) | hysteresis of compression-expansion curves ([6]; ectoine in PBS subphase vs without ectoine) | shift of the compression isotherm (area per molecule) ([6]; ectoine in PBS subphase, pH 7.4, 20° C., vs subphase without ectoine, effect is concentration-dependent)
1 | CC1=N[C@H](C(=O)O)CCN1 [ectoine, (S)-2-methyl-1,4,5,6-tetrahydropyrimidine-4-carboxylic acid] | stronger improvement | 2.6 | 17.7 | 0.9 | generally well tolerated | 10.6 | 1.8 | 8.8 | comparatively scattered and distinctly smaller | approx. 200 nm | ≤ 300 | increased | no significant differences | isotherm shifts in the direction of a larger area per molecule
2 | hyaluronic acid [reference compound] |  |  |  |  | generally well tolerated |  |  |  |  |  |  |  |  | 
